Results published in ChEMBL document CHEMBL5537146, “Novel orally bioavailable piperidine derivatives as extracellular arginase inhibitors developed by a ring expansion” (Eur J Med Chem, 2024).

Key:
[1] = Inhibition of mouse intracellular ARG in M2 polarized C57BL/6 mouse BMDM cells incubated for 24 hrs by absorbance based analysis; assay type: cell-based; conditions: C57BL/6, BMDM
Arginase-1 [2] = target: T1, Arginase-1 (Homo sapiens, UniProt P05089); assay: Inhibition of human recombinant ARG1 expressed in Escherichia coli using L-arginine hydrochloride as substrate assessed as inhibition of urea production incubated for 20 mins by colorimetric analysis
T1 sequence (P05089 whole entry): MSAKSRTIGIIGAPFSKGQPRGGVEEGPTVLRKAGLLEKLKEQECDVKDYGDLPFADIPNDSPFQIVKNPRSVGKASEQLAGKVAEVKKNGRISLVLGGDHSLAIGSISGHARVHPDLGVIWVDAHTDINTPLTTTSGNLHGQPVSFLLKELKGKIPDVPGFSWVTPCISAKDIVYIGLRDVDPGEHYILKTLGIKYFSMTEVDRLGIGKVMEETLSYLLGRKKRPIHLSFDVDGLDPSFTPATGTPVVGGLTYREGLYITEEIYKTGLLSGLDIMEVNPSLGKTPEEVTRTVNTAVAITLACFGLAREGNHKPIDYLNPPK

Arginase-1 [3] = target: T1, Arginase-1; assay: Inhibition of extracellular arginase (unknown origin)
[4] = Tmax in Sprague-Dawley rat at 10 mg/kg, po measured over 24 hrs by LC-MS/MS analysis; assay type: ADME, organism-based; conditions: in vivo
[5] = Volume of distribution at steady state in Sprague-Dawley rat at 3 mg/kg, iv measured over 24 hrs by LC-MS/MS analysis; assay type: ADME, organism-based; conditions: in vivo, read-out: Vdss
[6] = Drug metabolism in Balb/c mouse plasma assessed as increase in arginine level by measuring fold change at 100 mg/kg, po measured for 24 hrs […] by LC-MS/MS analysis; assay type: ADME, organism-based; conditions: in vivo
[7] = Drug metabolism in Sprague-Dawley rat plasma assessed as increase in arginine level by measuring fold change at 10 mg/kg, po measured for 24 hrs by LC-MS/MS analysis; assay type: ADME, organism-based; conditions: in vivo
[8] = Terminal elimination half-life in Sprague-Dawley rat at 3 mg/kg, iv measured over 24 hrs by LC-MS/MS analysis; assay type: ADME, organism-based; conditions: in vivo, read-out: beta t1/2 (converted)
[9] = Oral bioavailability in Sprague-Dawley rat at 10 mg/kg measured over 24 hrs by LC-MS/MS analysis; assay type: ADME, organism-based; conditions: in vivo
[10] = Clearance in Sprague-Dawley rat at 3 mg/kg, iv measured over 24 hrs by LC-MS/MS analysis; assay type: ADME, organism-based; conditions: in vivo
[11] = Oral bioavailability in Balb/c mouse at 100 mg/kg measured for 24 hrs by LC-MS/MS analysis; assay type: ADME, organism-based; conditions: in vivo
[12] = Drug metabolism in Balb/c mouse plasma assessed as (3R,5S)-3-amino-5-(2-boronoethyl)piperidine-3-carboxylic acid metabolite formation at 100 mg/kg, po measured for 24 hrs by LC-MS/MS analysis; assay type: ADME, organism-based; conditions: in vivo
[13] = AUC (0 to infinity) in Sprague-Dawley rat at 10 mg/kg, po measured for 24 hrs by LC-MS/MS analysis; assay type: ADME, organism-based; conditions: in vivo
[14] = Toxicity in Sprague-Dawley rat assessed as change in body weight measured after 7 days; conditions: in vivo, 168 h, time 7 day
[15] = target: Voltage-gated inwardly rectifying potassium channel KCNH2 (Homo sapiens, UniProt Q12809); assay: Inhibition of hERG; assay type: toxicity
Chain of Voltage-gated inwardly rectifying potassium channel KCNH2 (Q12809 whole entry): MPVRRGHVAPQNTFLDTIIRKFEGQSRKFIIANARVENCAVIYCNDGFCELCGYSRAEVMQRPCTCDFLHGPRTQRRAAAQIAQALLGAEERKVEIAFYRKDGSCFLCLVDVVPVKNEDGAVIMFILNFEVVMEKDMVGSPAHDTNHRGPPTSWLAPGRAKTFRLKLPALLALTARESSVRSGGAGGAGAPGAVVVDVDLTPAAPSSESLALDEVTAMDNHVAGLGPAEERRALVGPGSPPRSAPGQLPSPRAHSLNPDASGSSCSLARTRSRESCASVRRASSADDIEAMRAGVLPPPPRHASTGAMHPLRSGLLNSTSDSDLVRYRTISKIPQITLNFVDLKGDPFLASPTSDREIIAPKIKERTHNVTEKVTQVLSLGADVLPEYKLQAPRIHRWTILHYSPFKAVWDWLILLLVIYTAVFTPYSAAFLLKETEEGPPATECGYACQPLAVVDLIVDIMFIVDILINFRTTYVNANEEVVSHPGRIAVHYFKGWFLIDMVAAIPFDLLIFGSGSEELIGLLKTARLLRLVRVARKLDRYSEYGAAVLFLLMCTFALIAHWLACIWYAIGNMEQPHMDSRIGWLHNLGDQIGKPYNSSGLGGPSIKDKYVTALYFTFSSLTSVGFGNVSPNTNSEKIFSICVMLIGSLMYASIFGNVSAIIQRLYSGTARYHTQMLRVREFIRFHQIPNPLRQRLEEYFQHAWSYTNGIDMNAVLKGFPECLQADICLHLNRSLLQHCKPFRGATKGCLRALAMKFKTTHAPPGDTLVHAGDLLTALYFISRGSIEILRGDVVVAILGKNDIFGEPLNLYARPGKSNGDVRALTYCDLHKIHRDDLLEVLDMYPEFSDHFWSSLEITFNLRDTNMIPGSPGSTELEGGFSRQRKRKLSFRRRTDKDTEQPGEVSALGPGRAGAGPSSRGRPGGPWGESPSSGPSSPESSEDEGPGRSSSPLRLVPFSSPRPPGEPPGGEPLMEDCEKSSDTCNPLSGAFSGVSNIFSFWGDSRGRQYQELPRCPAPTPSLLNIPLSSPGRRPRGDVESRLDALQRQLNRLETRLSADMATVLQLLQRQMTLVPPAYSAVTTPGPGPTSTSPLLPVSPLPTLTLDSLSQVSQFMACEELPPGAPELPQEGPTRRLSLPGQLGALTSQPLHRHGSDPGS

[16] = Genotoxicity in Salmonella typhimurium TA98 in presence of S9 fraction by Ames test; assay type: toxicity; conditions: salmonella enterica subsp. enterica serovar typhimurium
[17] = Toxicity in Sprague-Dawley rat assessed as mortality upto 1 g/Kg, po measured after 7 days; assay type: organism-based; conditions: in vivo, 1000 mg/kg, 168 h, time 7 day
[18] = Permeability in human Caco-2 cells; assay type: ADME, cell-based

SMILES	IC50 [1]	IC50 (Arginase-1 [2])	also measured
N[C@@H](Cc1c[nH]c2ccccc12)C(=O)N1C[C@@H](CCB(O)O)C[C@](N)(C(=O)O)C1	> 300000 nM	280 nM	
N[C@]1(C(=O)O)C[C@H](CCB(O)O)CN(C(=O)[C@@H]2CCCN2)C1	> 300000 nM	350 nM	
C[C@H](N)C(=O)N1C[C@H](CCB(O)O)C[C@](N)(C(=O)O)C1		> 10000 nM	
CN(C)C[C@@H]1CC[C@@H](CCB(O)O)C[C@]1(N)C(=O)O	1100 nM	20 nM	IC50 (Arginase-1 [3]): 20 nM
C[C@H](N)C(=O)N1C[C@@H](CCB(O)O)C[C@@](N)(C(=O)O)C1		> 10000 nM	
CSCC[C@H](N)C(=O)N1C[C@@H](CCB(O)O)C[C@](N)(C(=O)O)C1	> 300000 nM	400 nM	
C[C@H](N)C(=O)N1C[C@@H](CCB(O)O)C[C@](N)(C(=O)O)C1	> 300000 nM	270 nM	Tmax [4]: 1 h; Vd [5]: 0.69 L/kg; fold change (FC) [6]: 3; fold change (FC) [7]: 2; half-life [8]: 2.66 h; bioavailability [9]: 18.8%; clearance [10]: 5.87 mL/min/kg; bioavailability [11]: 58%; Drug metabolism [12]: Metabolite_Detected
Cn1cc(C[C@@H](N)C(=O)N2C[C@@H](CCB(O)O)C[C@](N)(C(=O)O)C2)c2ccccc21	> 300000 nM	740 nM	
C[C@@H](N)C(=O)N1C[C@@H](CCB(O)O)C[C@](N)(C(=O)O)C1	> 300000 nM	3220 nM	
C[C@@H](O)[C@H](N)C(=O)N1C[C@@H](CCB(O)O)C[C@](N)(C(=O)O)C1	> 300000 nM	380 nM	
N[C@@]1(C(=O)O)CCC[C@@H](CCB(O)O)C1		1200 nM	
C[C@H](N)C(=O)N1C[C@@H](CCB(O)O)C[C@](N)(C(=O)O)[C@@H]1C		250 nM	Tmax [4]: 1 h; Vd [5]: 0.69 L/kg; fold change (FC) [7]: 2; half-life [8]: 2.66 h; bioavailability [9]: 65.6%; clearance [10]: 5.87 mL/min/kg
C[C@@H]1N(C(=O)[C@@H](N)CCCNC(=N)N)C[C@@H](CCB(O)O)C[C@]1(N)C(=O)O		400 nM	
N[C@@]1(C(=O)O)CNC[C@@H](CCB(O)O)C1		830 nM	
NCC(=O)N1C[C@@H](CCB(O)O)C[C@](N)(C(=O)O)C1	> 300000 nM	250 nM	Tmax [4]: 1 h; Vd [5]: 0.69 L/kg; fold change (FC) [7]: 2; half-life [8]: 2.66 h; AUC(0-inf) [13]: 2680 ng·h/mL; bioavailability [9]: 18.8%; clearance [10]: 5.87 mL/min/kg
N[C@@H](CS)C(=O)N1C[C@@H](CCB(O)O)C[C@](N)(C(=O)O)C1	> 300000 nM	760 nM	
NC(=O)C[C@H](N)C(=O)N1C[C@@H](CCB(O)O)C[C@](N)(C(=O)O)C1	> 300000 nM	360 nM	
COC(=O)[C@@]1(N)C[C@H](CCB(O)O)CN(C(=O)[C@H](C)N)C1		> 10000 nM	

SMILES	IC50 [1]	IC50 (Arginase-1 [2])	also measured
C[C@H](N)C(=O)N1C[C@H](CCCB(O)O)[C@](N)(C(=O)O)C1	56200 nM		
N[C@@H](CCC(=O)O)C(=O)N1C[C@@H](CCB(O)O)C[C@](N)(C(=O)O)C1	> 300000 nM	680 nM	
NCCC[C@H](N)C(=O)N1C[C@@H](CCB(O)O)C[C@](N)(C(=O)O)C1	> 300000 nM	310 nM	
NCCCC[C@H](N)C(=O)N1C[C@@H](CCB(O)O)C[C@](N)(C(=O)O)C1	> 300000 nM	250 nM	
CNCC(=O)N1C[C@@H](CCB(O)O)C[C@](N)(C(=O)O)C1	> 300000 nM	420 nM	
C[C@H](N)C(=O)N1C[C@H](CCB(O)O)C[C@@](N)(C(=O)O)C1		> 10000 nM	
N[C@@H](CC(=O)O)C(=O)N1C[C@@H](CCB(O)O)C[C@](N)(C(=O)O)C1	> 300000 nM	650 nM	
NC(=O)CC[C@H](N)C(=O)N1C[C@@H](CCB(O)O)C[C@](N)(C(=O)O)C1	> 300000 nM	420 nM	
CCC[C@H](N)C(=O)N1C[C@@H](CCB(O)O)C[C@](N)(C(=O)O)C1	> 300000 nM	340 nM	
N=C(N)NCCC[C@H](N)C(=O)N1C[C@@H](CCB(O)O)C[C@](N)(C(=O)O)C1	> 300000 nM	160 nM	Tmax [4]: 1 h; Activity [14]: Non-Toxic; inhibition (INH) [15]: Not Active; Vd [5]: 0.69 L/kg; fold change (FC) [6]: 3; fold change (FC) [7]: 2; half-life [8]: 2.66 h; bioavailability [9]: 18.8%; clearance [10]: 5.87 mL/min/kg; Activity [16]: Toxic; Drug metabolism [12]: Metabolite_Detected; Activity [17]: Non-Toxic; permeability [18]: Impermeable
N[C@@H](Cc1ccc(O)cc1)C(=O)N1C[C@@H](CCB(O)O)C[C@](N)(C(=O)O)C1	> 300000 nM	280 nM	
NC(=O)NCCC[C@H](N)C(=O)N1C[C@@H](CCB(O)O)C[C@](N)(C(=O)O)C1	> 300000 nM	360 nM	
N[C@@H](CO)C(=O)N1C[C@@H](CCB(O)O)C[C@](N)(C(=O)O)C1	> 300000 nM	280 nM	
CC[C@H](C)[C@H](N)C(=O)N1C[C@@H](CCB(O)O)C[C@](N)(C(=O)O)C1	> 300000 nM	760 nM	
N[C@@H](Cc1ccccc1)C(=O)N1C[C@@H](CCB(O)O)C[C@](N)(C(=O)O)C1	> 300000 nM	240 nM	Tmax [4]: 1 h; Vd [5]: 0.69 L/kg; fold change (FC) [7]: 2; half-life [8]: 2.66 h; bioavailability [9]: 18.8%; clearance [10]: 5.87 mL/min/kg
N[C@@H](Cc1c[nH]cn1)C(=O)N1C[C@@H](CCB(O)O)C[C@](N)(C(=O)O)C1	> 300000 nM	210 nM	
CC(C)C[C@H](N)C(=O)N1C[C@@H](CCB(O)O)C[C@](N)(C(=O)O)C1	> 300000 nM	610 nM	
CC(C)[C@H](N)C(=O)N1C[C@@H](CCB(O)O)C[C@](N)(C(=O)O)C1	> 300000 nM	360 nM	
